The supplement of paper PMC10307832

Columns and labels:
Experiment in all cases: relative viability (nuclei count vs DMSO), 5 days (fraction); higher = more cells survive
Linifanib + Alpelisib = compound: Cc1ccc(F)c(NC(=O)Nc2ccc(-c3cccc4[nH]nc(N)c34)cc2)c1 [Linifanib] + Cc1nc(NC(=O)N2CCC[C@H]2C(N)=O)sc1-c1ccnc(C(C)(C)C(F)(F)F)c1 [Alpelisib] (partner 2 µM)
Outline: (§1)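 Lung cancer cell lines in 1536-well plates were dosed by pin tool the day after seeding, either with one drug alone or with a fixed anchor-drug dose plus five library-drug doses (not always all listed) in √10 steps. After 5 days, cells were fixed and their nuclei stained in one step (final 0.05% Triton X-100, 1% formaldehyde, 1 ug/ml Hoechst), then counted on 4× images. Relative viability is the nuclei count in treated wells divided by that in vehicle wells. Values are medians of duplicate plates.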

Linifanib + Pictilisib = compound: Cc1ccc(F)c(NC(=O)Nc2ccc(-c3cccc4[nH]nc(N)c34)cc2)c1 [Linifanib] + CS(=O)(=O)N1CCN(Cc2cc3nc(-c4cccc5[nH]ncc45)nc(N4CCOCC4)c3s2)CC1 [Pictilisib] (partner 1 µM)
Outline: as §1

Linifanib + Linsitinib = compound: Cc1ccc(F)c(NC(=O)Nc2ccc(-c3cccc4[nH]nc(N)c34)cc2)c1 [Linifanib] + C[C@]1(O)C[C@@H](c2nc(-c3ccc4ccc(-c5ccccc5)nc4c3)c3c(N)nccn32)C1 [Linsitinib] (partner 1 µM)
Outline: as §1

Linifanib + Crizotinib = compound: Cc1ccc(F)c(NC(=O)Nc2ccc(-c3cccc4[nH]nc(N)c34)cc2)c1 [Linifanib] + C[C@@H](Oc1cc(-c2cnn(C3CCNCC3)c2)cnc1N)c1c(Cl)ccc(F)c1Cl [Crizotinib] (partner 1 µM)
Outline: as §1

Linifanib + Foretinib = compound: Cc1ccc(F)c(NC(=O)Nc2ccc(-c3cccc4[nH]nc(N)c34)cc2)c1 [Linifanib] + COc1cc2c(Oc3ccc(NC(=O)C4(C(=O)Nc5ccc(F)cc5)CC4)cc3F)ccnc2cc1OCCCN1CCOCC1 [Foretinib] (partner 0.25 µM)
Outline: as §1

Linifanib + Olaparib = compound: Cc1ccc(F)c(NC(=O)Nc2ccc(-c3cccc4[nH]nc(N)c34)cc2)c1 [Linifanib] + O=C(c1cc(Cc2n[nH]c(=O)c3ccccc23)ccc1F)N1CCN(C(=O)C2CC2)CC1 [Olaparib] (partner 8 µM)
Outline: as §1

Linifanib + Navitoclax = compound: Cc1ccc(F)c(NC(=O)Nc2ccc(-c3cccc4[nH]nc(N)c34)cc2)c1 [Linifanib] + CC1(C)CCC(c2ccc(Cl)cc2)=C(CN2CCN(c3ccc(C(=O)NS(=O)(=O)c4ccc(N[C@H](CCN5CCOCC5)CSc5ccccc5)c(S(=O)(=O)C(F)(F)F)c4)cc3)CC2)C1 [Navitoclax] (partner 0.5 µM)
Outline: as §1

Linifanib + Bortezomib = compound: Cc1ccc(F)c(NC(=O)Nc2ccc(-c3cccc4[nH]nc(N)c34)cc2)c1 [Linifanib] + CC(C)C[C@H](NC(=O)[C@H](Cc1ccccc1)NC(=O)c1cnccn1)B(O)O [Bortezomib] (partner 0.002 µM)
Outline: as §1

Linifanib + Lapatinib = compound: Cc1ccc(F)c(NC(=O)Nc2ccc(-c3cccc4[nH]nc(N)c34)cc2)c1 [Linifanib] + CS(=O)(=O)CCNCc1ccc(-c2ccc3ncnc(Nc4ccc(OCc5cccc(F)c5)c(Cl)c4)c3c2)o1 [Lapatinib] (partner 2 µM)
Outline: as §1

Linifanib = compound: Cc1ccc(F)c(NC(=O)Nc2ccc(-c3cccc4[nH]nc(N)c34)cc2)c1 [Linifanib]
Outline: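 MetaXpress counted nuclei in 4× images of lung cancer cell lines that had been fixed, permeabilised and Hoechst-stained in one step. Before that, cells in 1536-well plates were kept overnight at 37 °C, pinned with five √10-spaced library-drug doses on vehicle-anchored plates, and cultured 5 days without medium change. Viability takes treated-well nuclei over vehicle-well nuclei and uses the median across plates. Plates were accepted only at control CV below 25% and at least one doubling.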

Linifanib + Luminespib = compound: Cc1ccc(F)c(NC(=O)Nc2ccc(-c3cccc4[nH]nc(N)c34)cc2)c1 [Linifanib] + CCNC(=O)c1noc(-c2cc(C(C)C)c(O)cc2O)c1-c1ccc(CN2CCOCC2)cc1 [Luminespib] (partner 0.01 µM)
Outline: as §1

Linifanib + Dasatinib = compound: Cc1ccc(F)c(NC(=O)Nc2ccc(-c3cccc4[nH]nc(N)c34)cc2)c1 [Linifanib] + Cc1nc(Nc2ncc(C(=O)Nc3c(C)cccc3Cl)s2)cc(N2CCN(CCO)CC2)n1 [Dasatinib] (partner 0.075 µM)
Outline: as §1

Linifanib + Tozasertib = compound: Cc1ccc(F)c(NC(=O)Nc2ccc(-c3cccc4[nH]nc(N)c34)cc2)c1 [Linifanib] + Cc1cc(Nc2cc(N3CCN(C)CC3)nc(Sc3ccc(NC(=O)C4CC4)cc3)n2)n[nH]1 [Tozasertib] (partner 0.1 µM)
Outline: as §1

Linifanib + OSI-027 = compound: Cc1ccc(F)c(NC(=O)Nc2ccc(-c3cccc4[nH]nc(N)c34)cc2)c1 [Linifanib] + COc1cccc2cc(-c3nc([C@H]4CC[C@H](C(=O)O)CC4)n4ncnc(N)c34)[nH]c12 [OSI-027] (partner 0.5 µM)
Outline: as §1

Linifanib + Phenformin = compound: Cc1ccc(F)c(NC(=O)Nc2ccc(-c3cccc4[nH]nc(N)c34)cc2)c1 [Linifanib] + N=C(N)NC(=N)NCCc1ccccc1 [Phenformin] (partner 250 µM)
Outline: as §1

| Cell Line | relative viability (Linifanib + Alpelisib; first compound 0.03162 µM) | relative viability (Linifanib + Alpelisib; first compound 0.1 µM) | relative viability (Linifanib + Alpelisib; first compound 0.3162 µM) | relative viability (Linifanib + Pictilisib; first compound 0.03162 µM) | relative viability (Linifanib + Pictilisib; first compound 0.1 µM) | relative viability (Linifanib + Pictilisib; first compound 0.3162 µM) | relative viability (Linifanib + Linsitinib; first compound 0.03162 µM) | relative viability (Linifanib + Linsitinib; first compound 0.1 µM) | relative viability (Linifanib + Linsitinib; first compound 0.3162 µM) | relative viability (Linifanib + Crizotinib; first compound 0.03162 µM) | relative viability (Linifanib + Crizotinib; first compound 0.1 µM) | relative viability (Linifanib + Crizotinib; first compound 0.3162 µM) | relative viability (Linifanib + Foretinib; first compound 0.03162 µM) | relative viability (Linifanib + Foretinib; first compound 0.1 µM) | relative viability (Linifanib + Foretinib; first compound 0.3162 µM) | relative viability (Linifanib + Olaparib; first compound 0.03162 µM) | relative viability (Linifanib + Olaparib; first compound 0.1 µM) | relative viability (Linifanib; 0.03162 µM) | relative viability (Linifanib; 0.1 µM) | relative viability (Linifanib; 0.3162 µM) | further results |
| --- | --- | --- | --- | --- | --- | --- | --- | --- | --- | --- | --- | --- | --- | --- | --- | --- | --- | --- | --- | --- | --- |
| NCI-H1299 | 1.11 | 1.02 | 1.06 | 0.575 | 0.885 | 0.829 | 0.975 | 0.996 | 0.998 | 0.899 | 0.956 | 0.97 | 1.1 | 1.11 | 1.04 | 0.978 | 0.958 | 1.02 | 1.02 | 1.03 | relative viability (Linifanib + Olaparib; first compound 0.3162 µM): 0.959; relative viability (Linifanib + Navitoclax; first compound 0.03162 µM): 1.06; relative viability (Linifanib + Navitoclax; first compound 0.1 µM): 1.08; relative viability (Linifanib + Navitoclax; first compound 0.3162 µM): 1; relative viability (Linifanib + Bortezomib; first compound 0.03162 µM): 1.03; relative viability (Linifanib + Bortezomib; first compound 0.1 µM): 1.01; relative viability (Linifanib + Bortezomib; first compound 0.3162 µM): 1.02; relative viability (Linifanib + Lapatinib; first compound 0.03162 µM): 0.951; relative viability (Linifanib + Lapatinib; first compound 0.1 µM): 0.95; relative viability (Linifanib + Lapatinib; first compound 0.3162 µM): 0.994 |
| NCI-H1623 |  |  |  |  |  |  |  |  |  |  |  |  | 0.848 | 0.929 | 0.877 |  |  | 0.918 | 0.891 | 1.04 | relative viability (Linifanib + Luminespib; first compound 0.03162 µM): 0.49; relative viability (Linifanib + Luminespib; first compound 0.1 µM): 0.493; relative viability (Linifanib + Luminespib; first compound 0.3162 µM): 0.471; relative viability (Linifanib + Dasatinib; first compound 0.03162 µM): 0.463; relative viability (Linifanib + Dasatinib; first compound 0.1 µM): 0.608; relative viability (Linifanib + Dasatinib; first compound 0.3162 µM): 0.46; relative viability (Linifanib + Tozasertib; first compound 0.03162 µM): 0.427; relative viability (Linifanib + Tozasertib; first compound 0.1 µM): 0.434; relative viability (Linifanib + Tozasertib; first compound 0.3162 µM): 0.417; relative viability (Linifanib + OSI-027; first compound 0.03162 µM): 0.437; relative viability (Linifanib + OSI-027; first compound 0.1 µM): 0.43; relative viability (Linifanib + OSI-027; first compound 0.3162 µM): 0.421; relative viability (Linifanib + Phenformin; first compound 0.03162 µM): 0.524; relative viability (Linifanib + Phenformin; first compound 0.1 µM): 0.601; relative viability (Linifanib + Phenformin; first compound 0.3162 µM): 0.601 |
| Calu-6 | 1.08 | 1.05 | 1.01 | 0.93 | 0.995 | 0.892 | 1.01 | 0.919 | 0.969 | 0.815 | 0.768 | 0.826 | 0.812 | 0.95 | 0.881 | 0.539 | 0.602 | 1.05 | 1.05 | 0.995 | relative viability (Linifanib + Olaparib; first compound 0.3162 µM): 0.565; relative viability (Linifanib + Navitoclax; first compound 0.03162 µM): 0.888; relative viability (Linifanib + Navitoclax; first compound 0.1 µM): 0.863; relative viability (Linifanib + Navitoclax; first compound 0.3162 µM): 0.873; relative viability (Linifanib + Bortezomib; first compound 0.03162 µM): 0.978; relative viability (Linifanib + Bortezomib; first compound 0.1 µM): 1.15; relative viability (Linifanib + Bortezomib; first compound 0.3162 µM): 1.07; relative viability (Linifanib + Lapatinib; first compound 0.03162 µM): 1.12; relative viability (Linifanib + Lapatinib; first compound 0.1 µM): 1.19; relative viability (Linifanib + Lapatinib; first compound 0.3162 µM): 1 |
